Activity data for five compounds are collected here from ChEMBL document CHEMBL1148958, “Antibacterial activity of naphthoquinones and triterpenoids from Euclea natalensis root bark” (J Nat Prod, 2004).

Active and inactive are the calls of the source. The calls are words filed in the database; no cut-off is given here.

What all share (assay type): functional, organism-based
Assay [1] concerns Bacillus subtilis. Put plainly: Antibacterial activity against Bacillus subtilis ATCC 6633 at 0.1 mg/ml by agar plate method.
Assay [2] concerns Enterococcus faecalis. The experiment in a line: Antibacterial activity against Streptococcus faecalis at 0.1 mg/ml by agar plate method.
Assay [3] deals with Mycobacterium tuberculosis. Put plainly: Antimycobacterial activity against Mycobacterium tuberculosis H37Rv at 0.1 mg/ml by rapid radiometric method.
In assay [4] the test system is Bacillus pumilus. The experiment in a line: Antibacterial activity against Bacillus pumilus ATCC 27142 at 0.1 mg/ml by agar plate method.
For assay [5], the system named is Staphylococcus aureus. The experiment in a line: Antibacterial activity against Staphylococcus aureus ATCC 25923 at 0.1 mg/ml by agar plate method.
Assay [6] relates to Enterococcus faecalis. Put plainly: Antibacterial activity against Streptococcus faecalis at 0.01 mg/ml by agar plate method.
Another assay relates to Pseudomonas aeruginosa. Put plainly: Antibacterial activity against Pseudomonas aeruginosa ATCC 27853 at 0.05 mg/ml by agar plate method.
In a further assay the test system is Bacillus cereus. Put plainly: Antibacterial activity against Bacillus cereus at 0.01 mg/ml by agar plate method.
Assay [7] has as its system Bacillus subtilis. Put plainly: Antibacterial activity against Bacillus subtilis ATCC 6633 at 0.01 mg/ml by agar plate method.
The test system of a further assay is Escherichia coli. The experiment in a line: Antibacterial activity against Escherichia coli ATCC 25922 at 0.01 mg/ml by agar plate method.
The test system of another assay is Enterobacter cloacae. The experiment in a line: Antibacterial activity against Enterobacter cloacae ATCC 13047 at 0.01 mg/ml by agar plate method.
The test system of the next assay is Pantoea agglomerans. Put plainly: Antibacterial activity against Pantoea agglomerans ATCC 27155 at 0.01 mg/ml by agar plate method.
The subject of assay [8] is Bacillus pumilus. The experiment in a line: Antibacterial activity against Bacillus pumilus ATCC 27142 at 0.01 mg/ml by agar plate method.
The test system of another assay is Serratia marcescens. Put plainly: Antibacterial activity against Serratia marcescens ATCC 13880 at 0.1 mg/ml by agar plate method.
Assay [9] deals with Staphylococcus aureus. Put plainly: Antibacterial activity against Staphylococcus aureus ATCC 25923 at 0.01 mg/ml by agar plate method.
In a further assay the test system is Klebsiella pneumoniae. The experiment in a line: Antibacterial activity against Klebsiella pneumoniae ATCC 10031 at 0.01 mg/ml by agar plate method.
Assay [10] has as its system Mycobacterium tuberculosis. The experiment in a line: Antimycobacterial activity against Mycobacterium tuberculosis H37Rv at 0.004 mg/ml by rapid radiometric method.
In assay [11] the test system is Mycobacterium tuberculosis. Put plainly: Antimycobacterial activity against Mycobacterium tuberculosis H37Rv at 0.006 mg/ml by rapid radiometric method.

Take `Cc1cc(O)c2c(c1)[C@H](O)CCC2=O`: the result (with Bacillus subtilis [1]; in the assay on Enterococcus faecalis [2]; in assay [3]; in the assay on Bacillus pumilus [4]; in the assay with Staphylococcus aureus [5]) was Active.
As for `C=C(C)[C@@H]1CC[C@]2(C)CC[C@]3(C)[C@@H](CC[C@@H]4[C@@]5(C)CC[C@H](OC(=O)/C=C/c6ccc(OC)c(O)c6)C(C)(C)[C@@H]5CC[C@]43C)[C@H]12`, in the assay on Bacillus pumilus [4], the result was Active.
Still for that read-out and setting: the result for `Cc1cc(O)c2c(c1)C(=O)C[C@H](c1c(C)cc3c(c1O)C(=O)CCC3O)[C@@H]2O` (stereo not given in full) reads “inactive”.
Consider `CN[C@@H]1[C@H](O[C@H]2[C@H](O[C@H]3[C@H](O)[C@@H](O)[C@H](N=C(N)N)[C@@H](O)[C@@H]3N=C(N)N)O[C@@H](C)[C@]2(O)C=O)O[C@@H](CO)[C@H](O)[C@H]1O`, for which the result in the assay with Enterococcus faecalis [6], in the assay on Pseudomonas aeruginosa, with Bacillus cereus, in the assay with Bacillus subtilis [7], in the assay on Escherichia coli and with Enterobacter cloacae was Active. Besides, the result (with Pantoea agglomerans; in the assay with Bacillus pumilus [8]; in the assay with Serratia marcescens; with Staphylococcus aureus [9]; with Klebsiella pneumoniae; in assay [10]) was Active.
In the case of `CC[C@@H](CO)NCCN[C@@H](CC)CO`, the outcome in assay [11] was Active.
